These results are taken from patent US5710130A, “Antithrombotic agents” (Eli Lilly and Company, priority 1995, dated 1998).

Data set [1] is described as follows: Index of bioavailability (% Relative Activity) from plasma TT time course, oral vs i.v. The format is in vivo. The conditions noted are these: p.o. dose per legend (20, 60 or 50 mg/kg). As to the method:
Parke Davis) at 37° C. […] Assays are done in duplicate and averaged. […] Each sample population represented alternating sequential time points.

Data set [2] concerns human plasma. In words: Human plasma anticoagulation, prothrombin time (PT). The format is biochemical. The following applies: concentration required to double PT, linear extrapolation. Put shortly:
(§1)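 Compound was spiked over a wide concentration range into citrated human plasma, and clotting times were read on a coagulation instrument. PT was started with saline plus Thromboplastin-C. APTT used 120 s preincubation with Actin, then 0.02M CaCl2. TT used saline plus bovine thrombin (10 NIH units/mL). Doubling concentrations were obtained by linear extrapolation.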

Data set [3] has as its system human plasma. Nature of the data set: Human plasma anticoagulation, activated partial thromboplastin time (APTT). The format is biochemical. The following applies: concentration required to double APTT, linear extrapolation. The method in brief: as §1
The test system of data set [4] is human plasma. Nature of the data set: Human plasma anticoagulation, thrombin time (TT). The format is biochemical. The following applies: concentration required to double thrombin time, linear extrapolation. The method in brief:
as §1

For another data set, the target named is Human Thrombin (Homo sapiens, UniProt P00734). Nature of the data set: Inhibition of thrombin amidase activity (Kass), chromogenic substrate. The data set is classed as biochemical. The conditions noted are these: mean Kass over a range of concentrations; substrate N-benzoyl-Phe-Val-Arg-p-nitroanilide.
For another data set, the system named is thrombin. The following applies: Bajusz et al., J. Med. Chem. 33, 1729-1735 (1990); cited from earlier work.
The conditions of data set [5]: early clinical studies, Simoons et al., Circulation 90, I-231 (1994); cited from earlier work.
For another data set, the target named is factor Xa (Homo sapiens, UniProt P00742). In words: Kass against factor Xa, chromogenic substrate. The conditions noted are these: substrate N-Benzoyl-Ile-Glu-Gly-Arg-p-nitroanilide. The data set is classed as biochemical.
Chain of factor Xa (P00742 235-488 limits assumed): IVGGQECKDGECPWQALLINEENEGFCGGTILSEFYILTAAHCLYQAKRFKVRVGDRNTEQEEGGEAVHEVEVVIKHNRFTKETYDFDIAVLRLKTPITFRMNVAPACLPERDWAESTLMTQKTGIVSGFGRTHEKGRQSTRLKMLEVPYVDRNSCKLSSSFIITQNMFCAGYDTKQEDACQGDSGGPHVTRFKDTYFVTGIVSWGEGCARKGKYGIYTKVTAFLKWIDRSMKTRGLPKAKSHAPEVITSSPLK
Chain of factor Xa (P00742 41-179 partner limits assumed): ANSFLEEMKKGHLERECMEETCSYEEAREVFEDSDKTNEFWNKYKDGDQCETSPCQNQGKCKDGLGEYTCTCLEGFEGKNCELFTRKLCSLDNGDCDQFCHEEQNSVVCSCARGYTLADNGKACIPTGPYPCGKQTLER
For data set [6], the target named is T1, activated protein C (aPC) (Homo sapiens, UniProt P04070).
T1 construct: made in house
T1 sequence (P04070 212-450 limits assumed): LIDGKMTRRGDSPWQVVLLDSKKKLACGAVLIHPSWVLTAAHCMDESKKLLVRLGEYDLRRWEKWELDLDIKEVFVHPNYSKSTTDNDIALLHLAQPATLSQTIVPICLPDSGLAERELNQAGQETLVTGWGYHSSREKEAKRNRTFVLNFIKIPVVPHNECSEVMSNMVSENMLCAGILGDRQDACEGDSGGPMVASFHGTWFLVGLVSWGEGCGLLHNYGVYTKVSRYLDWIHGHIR
T1 sequence (P04070 43-197 partner limits assumed): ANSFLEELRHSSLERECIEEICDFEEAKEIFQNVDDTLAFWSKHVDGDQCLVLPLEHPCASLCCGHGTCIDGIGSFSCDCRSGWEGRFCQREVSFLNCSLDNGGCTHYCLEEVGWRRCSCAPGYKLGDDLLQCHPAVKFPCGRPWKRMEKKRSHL
Nature of the data set: Inhibition of activated protein C (aPC), chromogenic substrate. The following applies: statement in words. The data set is classed as biochemical. The protocol:
By substantially following the procedures described above for human thrombin, and using other human blood coagulation system serine proteases and proteases of the fibrinolytic system with the appropriate chromogenic substrates, identified below, selectivity of the compounds of the present invention with respect to the coagulation factor serine proteases and with respect to the fibrinolytic system serine proteases are evaluated as well as their substantial lack of interference with serine proteases of the fibrinolytic system. Thrombin inhibitors preferably should spare fibrinolysis induced by urokinase, tissue plasminogen activator (t-PA) and streptokinase. This would be important to the therapeutic use of such agents as an adjunct to streptokinase, t-PA or urokinase thrombolytic therapy and to the use of such agents as an endogenous fibrinolysis-sparing (with respect to t-PA and urokinase) antithrombotic agent. In addition to the lack of interference with the amidase activity of the fibrinolytic proteases, such fibrinolytic system sparing can be studied by the use of human plasma clots and their lysis by the respective fibrinolytic plasminogen activators.
Human factors X, Xa, IXa, XIa, and XIIa are purchased from Enzyme Research Laboratories, South Bend, Ind.; human urokinase from Leo Pharmaceuticals, Denmark; and recombinant activated Protein C (aPC) is prepared at Eli Lilly and Co. substantially according to U.S. Pat. No. 4,981,952. Chromogenic substrates: N-Benzoyl-Ile-Glu-Gly-Arg-p-nitroanilide (for factor Xa); N-Cbz-D-Arg-Gly-Arg-p-nitroanilide (for factor IXa assay as the factor Xa substrate); Pyroglutamyl-Pro-Arg-p-nitroanilide (for Factor XIa and for aPC); H-D-Pro-Phe-Arg-p-nitroanilide (for factor XIIa); and Pyroglutamyl-Gly-Arg-p-nitroanilide (for urokinase); are purchased from KabiVitrum, Stockholm, Sweden, or from Midwest Biotech, Fishers, Ind.. Bovine trypsin is purchased from Worthington Biochemicals, Freehold, N.J., and human plasma kallikrein from Kabi Vitrum, Stockholm, Sweden. […]

Structures are written as SMILES. Where a name gives a salt, the structure may show the parent alone. Where only a bound is given, the exact number is not on record here.

`CCS(=O)(=O)N[C@H](Cc1ccccc1)C(=O)N1[C@H](C(=O)NCc2ccc(C(=N)N)cc2)C[C@@H]2CCCC[C@@H]21` (relative stereo) [Example 45, hydrochloride]: in [1], the “% oral/i.v. activity (Rat), screening not completed” value is listed as “NC^2”. For the same compound, in the data set on human plasma [2], the “Human Plasma Anticoagulation 2x Clotting time PT” value was 330 ng/mL. Besides, the “Human Plasma Anticoagulation 2x Clotting time APTT” value with human plasma [3] is on record as 200 ng/mL. The “Human Plasma Anticoagulation 2x Clotting time TT” value with human plasma [4] is on record as 8 ng/mL.
On to `N=C(N)c1ccc(CNC(=O)[C@@H]2C[C@@H]3CCCC[C@@H]3N2C(=O)[C@@H](Cc2ccccc2)NCC(=O)O)cc1` (relative stereo) [Example 47, HOOCCH2 -D-Phe-cis-Ohi-p-NHCH2 C6 H4 C(NH)NH2.HCl], for which, in [1], the “% oral/i.v. activity (Rat), screening not completed” value is given as “NC^2”. In addition, in the data set on human plasma [2], the “Human Plasma Anticoagulation 2x Clotting time PT” value is 270 ng/mL. Further, in the data set with human plasma [3], the “Human Plasma Anticoagulation 2x Clotting time APTT” value is 140 ng/mL. For the same compound, in the data set on human plasma [4], the “Human Plasma Anticoagulation 2x Clotting time TT” value was 12 ng/mL. The “Kass Human Thrombin” value at Human Thrombin is 45 × 10^6 (L/mole).
As for `N=C(N)c1ccc(CNC(=O)[C@@H]2C[C@@H]3CCCC[C@@H]3N2C(=O)[C@@H](CC2CCCCC2)NCC(=O)O)cc1` (relative stereo) [Example 49, (S-cis)-N-[[4-(aminoiminomethyl)phenyl]methyl]-1-[N-(carboxymethyl)-D-cyclohexylalanyl-1H-indole-2-carboxamide hydrochloride], the “% oral/i.v. activity (Rat), screening not completed” value in data set [1] was “NC^2”. In the data set with human plasma [4], the “Human Plasma Anticoagulation 2x Clotting time TT” value is listed as 5 ng/mL.
With `CC(C)(C)OC(=O)N[C@H](Cc1ccccc1)C(=O)N1CCC[C@H]1C(=O)N[C@H](C=O)CCCNC(=N)N` [Boc-D-Phe-Pro-Arg-H], the “direct inhibition of thrombin” value with thrombin was “potent direct inhibition”.
`CN[C@H](Cc1ccccc1)C(=O)N1CCC[C@H]1C(=O)N[C@H](C=O)CCCNC(=N)N.O=S(=O)(O)O` [D-MePhe-Pro-Arg-H sulfate]: the anticoagulant in man entry in data set [5] is recorded as “is an anticoagulant in man”.
For `CN[C@H](Cc1ccccc1)C(=O)N1CCC[C@H]1C(=O)N[C@H](C=O)CCCNC(=N)N` [D-MePhe-Pro-Arg-H], in the data set on thrombin, the “direct inhibition of thrombin” value is “potent direct inhibition”.
For the compound `N=C(N)NCCC[C@@H](C=O)NC(=O)[C@@H]1CCCN1C(=O)[C@H](N)Cc1ccccc1` [D-Phe-Pro-Arg-H], the “direct inhibition of thrombin” value in the data set on thrombin is on record as “potent direct inhibition”.
On to `CCS(=O)(=O)N[C@H](Cc1ccccc1)C(=O)N1CCC[C@H]1C(=O)NCCc1ccc(C(=N)N)cc1` [Example 26, EtSO2 -D-Phe-Pro-p-NHCH2 CH2 -C6 H4 C(=NH)NH2.HCl], for which the “% oral/i.v. activity (Rat), screening not completed” value in [1] is “NC^1”. In addition, in the data set with human plasma [2], the “Human Plasma Anticoagulation 2x Clotting time PT” value is recorded as 750 ng/mL. Moreover, in the data set with human plasma [3], the “Human Plasma Anticoagulation 2x Clotting time APTT” value is listed as 870 ng/mL. Also, the “Human Plasma Anticoagulation 2x Clotting time TT” value in the data set on human plasma [4] is listed as 37 ng/mL.
As to `CCS(=O)(=O)N[C@H](Cc1ccccc1)C(=O)N1CCC[C@H]1C(=O)NCCc1cccc(N=C(N)N)c1.Cl` [Example 37, EtSO2 -D-Phe-Pro-m-NHCH2 CH2 C6 H4 NHC(NH)NH2.HCl], in the data set on human plasma [2], the “Human Plasma Anticoagulation 2x Clotting time PT” value is recorded as > 9,000 ng/mL. Moreover, the “Human Plasma Anticoagulation 2x Clotting time APTT” value with human plasma [3] is listed as > 9,000 ng/mL. Moreover, the “Human Plasma Anticoagulation 2x Clotting time TT” value in the data set on human plasma [4] is reported as > 9,000 ng/mL. In addition, the “Kass Xa” value on factor Xa was < 0.009 × 10^6 (L/mole). Besides, on Human Thrombin, the “Kass Human Thrombin” value is reported as 0.02 × 10^6 (L/mole).
Take `Cl.Cl.N=C(N)c1ccc(CNC(=O)C2CC3CCCCC3N2C(=O)C2NCCC3CCCCC32)cc1` [Example 42, D-1-Piq-cis-Ohi-p-NHCH2 C6 H4 C(NH)NH2.2HCl]: the “% oral/i.v. activity (Rat), screening not completed” value in [1] is “NC2”. Also, the “Human Plasma Anticoagulation 2x Clotting time PT” value in the data set on human plasma [2] is listed as 320 ng/mL. Further, the “Human Plasma Anticoagulation 2x Clotting time APTT” value in the data set on human plasma [3] is on record as 270 ng/mL. Besides, in the data set with human plasma [4], the “Human Plasma Anticoagulation 2x Clotting time TT” value is 20 ng/mL. In addition, the “Kass Human Thrombin” value at Human Thrombin is 38 × 10^6 (L/mole).
The like results for `Cl.Nc1ccc(CNC(=O)[C@@H]2CCCN2C(=O)[C@@H](CC2CCCCC2)NCC(=O)O)c(F)c1` [Example 64, HO2 CCH2 -D-Cha-Pro-4-NHCH2 -3-F-C6 H3 NH2.HCl] were, in that order, “NC^3”, 650 ng/mL, 900 ng/mL, 23 ng/mL and 15 × 10^6 (L/mole).
For the compound `N=C(N)c1ccc(CNC(=O)[C@@H]2CCCN2C(=O)[C@@H](CC2CCCCC2)NCC(=O)O)nc1` [Example 66, N-(carboxymethyl)-D-cyclohexylalanyl-N-[[5-(aminoiminomethyl)pyridin-2-yl]methyl]-L-prolinamide hydrochloride], the “Human Plasma Anticoagulation 2x Clotting time PT” value in the data set on human plasma [2] is reported as 270 ng/mL. The “Human Plasma Anticoagulation 2x Clotting time APTT” value in the data set with human plasma [3] was 180 ng/mL. Moreover, the “Human Plasma Anticoagulation 2x Clotting time TT” value in the data set with human plasma [4] is reported as 7.9 ng/mL. Besides, the “inhibition of activated protein C (aPC)” value in data set [6] was “very weak inhibition”.
Turning to `N=C(N)C1=CNC(CNC(=O)[C@@H]2CCCN2C(=O)[C@@H](CC2CCCCC2)NCC(=O)O)CC1` (stereo partly drawn) [Example 68, N-(carboxymethyl)-D-cyclohexylalanyl-N-[[5-(aminoiminomethyl)-1,2,3,4-tetrahydropyridin-2-yl]methyl]L-prolinamide hydrochloride], the “Human Plasma Anticoagulation 2x Clotting time PT” value in the data set with human plasma [2] is reported as 190 ng/mL. In addition, the “Human Plasma Anticoagulation 2x Clotting time APTT” value in the data set on human plasma [3] is 49 ng/mL. The “Human Plasma Anticoagulation 2x Clotting time TT” value in the data set with human plasma [4] is listed as 4 ng/mL. Also, the “inhibition of activated protein C (aPC)” value in [6] is given as “very weak inhibition”.
For `Cl.Cl.Cl.N=C(N)c1ccc(CNC(=O)[C@@H]2CCCN2C(=O)[C@@H](CC2CCCCC2)NCC(=O)O)nn1` [Example 69, N-(carboxymethyl)-D-cyclohexylalanyl-N-[[6-(aminoiminomethyl)pyridazin-3-yl]methyl]-L-prolinamide tri-hydrochloride], in the data set on human plasma [2], the “Human Plasma Anticoagulation 2x Clotting time PT” value was 220 ng/mL. For the same compound, the “Human Plasma Anticoagulation 2x Clotting time APTT” value with human plasma [3] was 110 ng/mL. Besides, the “Human Plasma Anticoagulation 2x Clotting time TT” value in the data set with human plasma [4] was 5 ng/mL. The “inhibition of activated protein C (aPC)” value in [6] is “very weak inhibition”. In addition, the “Kass Human Thrombin” value on Human Thrombin is recorded as 340 × 10^6 (L/mole).
On to `N=C(N)c1ccc(CNC(=O)[C@@H]2CCCN2C(=O)[C@@H](CC2CCCCC2)NCC(=O)O)c(F)c1` [Example 71, N-(carboxymethyl)-D-cyclohexylalanyl-N-[[4-(aminoiminomethyl)-2-fluorophenyl]methyl]-L-prolinamide hydrochloride], for which, in data set [1], the “% oral/i.v. activity (Rat), screening not completed” value is “NC^1”. In addition, in the data set on human plasma [2], the “Human Plasma Anticoagulation 2x Clotting time PT” value is on record as 150 ng/mL. Further, the “Human Plasma Anticoagulation 2x Clotting time APTT” value in the data set on human plasma [3] was 89 ng/mL. In the data set with human plasma [4], the “Human Plasma Anticoagulation 2x Clotting time TT” value is listed as 1 ng/mL.
On to `N=C(N)c1cc(F)c(CNC(=O)[C@@H]2CCCN2C(=O)[C@@H](CC2CCCCC2)NCC(=O)O)c(F)c1` [Example 72, N-(carboxymethyl)-D-cyclohexylalanyl-N-[[4-(aminoiminomethyl-2,6-difluorophenyl]methyl]-L-prolinamide hydrochloride], for which the “% oral/i.v. activity (Rat), screening not completed” value in [1] is “NC^1”. Moreover, the “Human Plasma Anticoagulation 2x Clotting time PT” value with human plasma [2] is given as 160 ng/mL. The “Human Plasma Anticoagulation 2x Clotting time APTT” value in the data set on human plasma [3] is listed as 160 ng/mL. For the same compound, the “Human Plasma Anticoagulation 2x Clotting time TT” value with human plasma [4] is recorded as 1 ng/mL.
